{"source": "patent US20150322083A1", "about": "“(THIENO[2,3-b][1,5]BENZOXAZEPIN-4-YL)PIPERAZIN-1-YL COMPOUNDS AS SELECTIVE 5-HT2A INVERSE AGONISTS” (Eli Lilly and Company, priority 2014, published 2015)", "key": {"[1]": {"target": "T1, recombinant human 5-HT2A receptor (Homo sapiens, UniProt P28223)", "T1 sequence (P28223 whole entry)": "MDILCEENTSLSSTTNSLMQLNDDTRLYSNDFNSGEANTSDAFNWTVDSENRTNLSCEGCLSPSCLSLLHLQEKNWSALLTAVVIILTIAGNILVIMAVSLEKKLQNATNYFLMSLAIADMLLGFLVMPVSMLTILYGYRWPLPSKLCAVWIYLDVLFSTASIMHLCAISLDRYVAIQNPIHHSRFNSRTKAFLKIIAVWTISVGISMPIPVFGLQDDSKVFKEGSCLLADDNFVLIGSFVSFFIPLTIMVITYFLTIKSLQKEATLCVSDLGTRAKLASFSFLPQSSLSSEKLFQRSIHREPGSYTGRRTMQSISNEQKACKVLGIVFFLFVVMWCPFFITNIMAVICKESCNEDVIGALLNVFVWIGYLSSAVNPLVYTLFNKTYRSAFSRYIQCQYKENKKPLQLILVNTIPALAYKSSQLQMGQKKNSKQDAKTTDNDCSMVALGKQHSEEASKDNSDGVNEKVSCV", "assay": "5-HT2A inverse agonism, [35S]GTPγS binding to AV12 membranes (human receptor)", "format": "biochemical", "design": "expressed in transfected cells; host or cells: AV12 cells, membranes", "method": "(§1) The inverse agonist activity of compounds of the present invention may be determined by literature recognized assay methods measuring [^35S]GTPγS binding to membranes transfected with 5-HT2A receptors in an in vitro activity assay essentially as described below.\n(§2) Membranes are prepared from frozen pellets of whole AV12 cells expressing the human or rat 5-HT2A receptor. Cells are thawed on ice and homogenized in homogenization buffer (50 mM Tris-HCl, 0.5 mM EDTA, 1 tablet/100 mL of complete EDTA free protease inhibitor tablets (Roche Cat. No. 05 056 489 001), pH=7.4) with 20 strokes of a teflon-glass homogenizer attached to a motorized overhead stirrer. Centrifuge membranes at 1000 rpm (aprox. 150×g) for 15 min. at 4° C. […] The final supernatant is discarded and the pellet is resuspended in homogenization buffer and its protein content is determined by the method of Bradford using BSA as the standard. […]\n(§3) Test compound is prepared from a 10 mM DMSO stock solution by serial dilution to provide a 10 point concentration response curve, with a final 1% DMSO concentration when added to the assay mixture. […] This mixture is incubated for 3 hr. with constant shaking at room temperature, centrifuged at 300 rpm for 1 min. with no brake and incubated for 3 more hr. before reading in a microplate scintillation counter."}, "[2]": {"target": "T2, recombinant rat 5-HT2A receptor (Rattus norvegicus, UniProt P14842)", "T2 construct": "expressed in transfected cells; host or cells: AV12 cells, membranes", "T2 sequence (P14842 whole entry)": "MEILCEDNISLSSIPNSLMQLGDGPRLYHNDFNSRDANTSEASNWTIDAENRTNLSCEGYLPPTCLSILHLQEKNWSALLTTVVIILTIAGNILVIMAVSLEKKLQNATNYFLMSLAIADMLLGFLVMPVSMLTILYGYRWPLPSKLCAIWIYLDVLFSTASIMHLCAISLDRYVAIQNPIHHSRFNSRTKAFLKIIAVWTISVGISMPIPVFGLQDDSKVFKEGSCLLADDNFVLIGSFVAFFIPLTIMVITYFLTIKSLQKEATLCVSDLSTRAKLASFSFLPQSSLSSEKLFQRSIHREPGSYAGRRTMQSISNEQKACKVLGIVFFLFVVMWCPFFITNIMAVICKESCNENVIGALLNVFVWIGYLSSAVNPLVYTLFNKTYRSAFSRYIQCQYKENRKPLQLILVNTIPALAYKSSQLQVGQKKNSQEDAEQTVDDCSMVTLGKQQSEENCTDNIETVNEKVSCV", "assay": "5-HT2A inverse agonism, [35S]GTPγS binding to AV12 membranes (rat receptor)", "format": "biochemical", "details": "n=2, read-out: EC50, inhibition of intrinsic activity of the 5-HT2A receptor", "method": "as §1, §2, §3"}, "[3]": {"target": "T1, recombinant human 5-HT2A receptor", "assay": "5-HT2A competition binding assay ([3H]-Ketanserin, SPA)", "design": "expressed in transfected cells", "method": "[^3H]-Ketanserin binding experiments are carried out in SPA 96-well format. Membranes used in this assay are prepared from AV-12 cells stably expressing recombinant 5-HT2A receptors (human). The incubation is initiated by the addition of a mixture of WGA YSi SPA beads (1 mg/well, Perkin Elmer (MA, USA), Product No. RPNQ0011) and 2 μg membranes to assay buffer (67 mM Tris, 0.5 mM EDTA; pH 7.6) containing 3.1 nM [^3H]-Ketanserin and varying concentrations of the test compound (10 point concentration response curves). Non-specific binding is determined in the presence of 20 μM 1-(1-naphthyl)piperazine. Samples are incubated for 4 hr. at room temperature (22° C.) and then read in a microplate scintillation counter.\nCurves are evaluated using a 4-parameter logistic nonlinear equation to obtain the concentration of competitor causing 50% inhibition of radioligand binding (IC50). Equilibrium dissociation constants (Ki) are calculated according to the equation Ki=IC50/(1+L/Kd), where L equals the concentration of radioligand used in the experiment and Kd equals the equilibrium dissociation constant of the radioligand for the receptor, determined from standard saturation analysis or homologous competition experiments. […]"}}, "data": [{"smiles": "Cc1ccc2c(c1)Oc1sc(SC(C)C)cc1C(N1CCN(CC(C)(C)C(=O)O)CC1)=N2", "note": "[Example 1, 3-[4-(2-isopropylsulfanyl-8-methyl-thieno[2,3-b][1,5]benzoxazepin-4-yl)piperazin-1-yl]-2,2-dimethyl-propanoic acid]", "values": [{"measurement": "5-HT2A inverse agonism (in words)", "setting": "[1]", "value": "inverse agonist of the 5-HT2A receptor"}, {"measurement": "EC50", "setting": "[1]; recombinant human receptor, n=2, read-out: EC50, inhibition of intrinsic activity of the 5-HT2A receptor", "value": 85, "unit": "nM"}, {"measurement": "EC50", "setting": "[2]", "value": 103, "unit": "nM"}, {"measurement": "Ki", "setting": "[3]", "value": 4.84, "unit": "nM"}]}]}
